Laboratory results from patent US11406649B2, “Treatment of upper aerodigestive tract disorders and cough” (IVIEW THERAPEUTICS, INC., priority 2018, dated 2022).
“Also recorded” adds a separate entry of the source.

Legend:
anesthetized rat [1] = assay: Blood pressure and heart rate after subcutaneous injection in anesthetized rat; format: in vivo; details: injected subcutaneously
[2] = test system: capsaicin induced coughing; assay: Capsaicin induced coughing in an animal model; details: in vivo
Oral Cavity and Pharynx [3] = assay: Sensory qualities of compounds in syrup applied to base of tongue of volunteers; format: in vivo, human
Experimental: The DIPA compounds was 5 mg/mL in cherry-flavored syrup in a volume of 0.8 mL per dose. The sensory effect were recorded every 5 min for 1 hr.
Tests were on four volunteers, with 3 to 5 trials per substance. Compounds were prepared in cherry-flavored syrup at 5 mg/mL and administered ˜0.8 mL per dose with a 2 mL plastic vial to the base of the tongue. The subjects asked to rate the sensations for cooling intensity, cold discomfort and adverse taste.
The concentration of the DIPA compounds was 5 mg/mL in cherry-flavored syrup administered in a volume of 0.8 mL per dose. The sensory effect were recorded every 5 min for 1 hr.

[4] = test system: upper aerodigestive tract discomfort; assay: Case studies of DIPA-1-9 syrup in volunteers with upper aerodigestive tract discomfort; format: in vivo, human
Source text: The rationale and data set for selecting DIPA-1-9 in syrup as a treatment agent for upper aerodigestive discomfort have been described. […] The coolness spreads to the rest of throat and intensifies, as if a spoonful of rich ice cream had been swallowed. […] The cooling sensation can be used to facilitate mucus expectoration from the airways. Also relieved is the sense of suffocation when lying down to sleep in a subject that has dyspnea.

[5] = test system: eyelids of patients with dry eye disorder; assay: Application to eyelids of patients with dry eye disorder; format: in vivo, human
[6] = test system: respiratory syncytial virus (RSV) induced cough; assay: Mouse cough model of respiratory syncytial virus infection; format: in vivo; details: 0.5 mg in 25 μL intranasally per mouse, 10 min before count
[7] = Water solubility of 1-dialkylphosphorylalkanes; format: physicochemical
Source text: The DIPA compounds are colorless liquids with a density less than water. These structures differ from those described by Rowsell and Spring U.S. Pat. No. 4,070,496 because '496 structures have their “head” (phosphine oxide group) covered by larger, more lipophilic groups. […] The applicant synthesized these analogs (which are achiral, by contrast to the structures of '496 which are >95% chiral). […] This increased water-solublility is striking (Table 3). […] The DIPA analogs are now mobile in the extracellular fluids and permeate between cells to access nerve endings in the stratum basale.

oral cavity = assay: DIPA-1-9 sprayed into the mouth with aerosol sprayer
cloned hTRPM8 channel = cloned hTRPM8 channel (Homo sapiens (Human), UniProt Q7Z2W7); assay: TRPM8 agonist activity, Fluo-8 calcium FLIPR assay (ChanTest); format: cell-based; details: L-menthol = 1.0
Experimental: In the first set of data, the potency and in vitro effects of test compounds were evaluated on cloned hTRPM8 channel (encoded by the human TRPM8 gene, expressed in CHO cells) using a Fluo-8 calcium kit and a Fluorescence Imaging Plate Reader (FLIPR^TETRA™) instrument. […] Test solutions were in a HEPES-buffered saline, in 384-well plates, and placed into the FLIPR instrument (Molecular Devices Corporation, Union City, Calif., USA). […] The test cells were Chinese Hamster Ovary (CHO) cells stably transfected with human TRPM8 cDNAs. Concentration-response data were analyzed via FLIPR Control software) and fitted to a Hill equation for the EC50.

[8] = molecular target: TRPA1 channels (human TRPA1 gene expressed in CHO cells) (Homo sapiens (Human), UniProt O75762); assay: Selectivity on TRPA1 channels; format: cell-based; details: positive control mustard oil
Source text: (§1) In a third set, the selectivity of the test compounds on TRPM8, TRPV1 channels (human TRPV1 gene expressed in HEK293 cells) and TRPA1 channels (human TRPA1 gene expressed in CHO cells) were examined.
(§2) The selectivity of DIPA-1-9 on TRP channel receptors, TRPM8, TRPA1 and TRPV1 is shown in FIG. 3 of Yang et. al. A novel TRPM8 agonist relieves dry eye discomfort. BMC Ophthalmology ([…]) 17: 101, and incorporated herein by reference. The applicant is a co-author of this publication.

[9] = molecular target: TRPV1 channels (human TRPV1 gene expressed in HEK293 cells) (Homo sapiens (Human), UniProt Q8NER1); assay: Selectivity on TRPV1 channels; format: cell-based; details: positive control capsaicin
Source text: as §1, §2

anesthetized rat [10] = assay: In vivo transdermal activity: shaking after topical application to abdominal skin of anesthetized rat; details: pure compound 20 μL on abdominal skin, counted 40 min
Experimental: Shaking frequency was counted for 40 min after topical application.
The importance of water solubility for permeation was further illustrated in studies on the abdominal skin of anesthetized rat. […] The pharmacokinetic determinants of bioactivity are precise. Thus, for the avoidance of cold discomfort, DIPA-1-9 has to reach the receptors in the stratum basale but not “over-stimulate”.

Oral Cavity and Pharynx [11] = assay: Sensory qualities of compounds in syrup applied to base of tongue of volunteers; format: in vivo, human; details: concentration increased to 15 mg/mL, 0.8 mL per dose
rat skin = assay: Skin irritation tests on rat skin; format: in vivo; design: key to Redness after 20 μL applied topically to skin (scale of 0 to +++): scale of 0 to +++; scale of 0 to +++; scale of 0 to +++; scale of 0 to +++
oropharynx and esophagus = assay: Sensory events and cold discomfort of compounds on throat, chest and body; details: for taste: oral cavity / tongue
Source text: The terms “icy cold” is used to describe this adverse event in the throat.
Most likely, the compound rapidly distributed and activated cold sensations in the eosophageal lining.

[12] = 5 mg/mL in cherry-flavored syrup, ~0.8 mL
[13] = 10 subjects with cough, sprayer 5 mg/mL cherry syrup, 1 week

Chain of TRPV1 channels (human TRPV1 gene expressed in HEK293 cells) (Q8NER1 whole entry): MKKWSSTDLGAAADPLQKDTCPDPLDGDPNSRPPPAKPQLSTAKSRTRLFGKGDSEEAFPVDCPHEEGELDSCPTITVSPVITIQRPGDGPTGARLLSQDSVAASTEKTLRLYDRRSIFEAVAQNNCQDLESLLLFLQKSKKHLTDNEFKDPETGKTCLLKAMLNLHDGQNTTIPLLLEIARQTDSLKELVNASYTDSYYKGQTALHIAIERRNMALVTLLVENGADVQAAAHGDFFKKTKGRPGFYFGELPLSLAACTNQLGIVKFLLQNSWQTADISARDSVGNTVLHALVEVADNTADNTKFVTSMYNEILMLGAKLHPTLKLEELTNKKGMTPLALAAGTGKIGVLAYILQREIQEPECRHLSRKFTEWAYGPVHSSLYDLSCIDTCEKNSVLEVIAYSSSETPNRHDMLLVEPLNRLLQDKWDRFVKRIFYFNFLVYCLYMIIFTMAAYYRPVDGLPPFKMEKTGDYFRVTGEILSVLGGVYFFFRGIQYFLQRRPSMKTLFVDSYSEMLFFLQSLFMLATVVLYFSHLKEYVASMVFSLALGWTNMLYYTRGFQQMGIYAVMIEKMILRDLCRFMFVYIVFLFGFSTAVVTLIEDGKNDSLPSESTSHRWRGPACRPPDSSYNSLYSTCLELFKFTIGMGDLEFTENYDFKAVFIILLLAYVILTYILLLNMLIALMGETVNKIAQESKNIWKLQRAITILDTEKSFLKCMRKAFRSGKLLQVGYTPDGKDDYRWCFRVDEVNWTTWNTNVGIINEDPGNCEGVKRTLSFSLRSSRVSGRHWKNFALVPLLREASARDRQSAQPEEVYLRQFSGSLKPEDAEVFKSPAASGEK
Chain of TRPA1 channels (human TRPA1 gene expressed in CHO cells) (O75762 whole entry): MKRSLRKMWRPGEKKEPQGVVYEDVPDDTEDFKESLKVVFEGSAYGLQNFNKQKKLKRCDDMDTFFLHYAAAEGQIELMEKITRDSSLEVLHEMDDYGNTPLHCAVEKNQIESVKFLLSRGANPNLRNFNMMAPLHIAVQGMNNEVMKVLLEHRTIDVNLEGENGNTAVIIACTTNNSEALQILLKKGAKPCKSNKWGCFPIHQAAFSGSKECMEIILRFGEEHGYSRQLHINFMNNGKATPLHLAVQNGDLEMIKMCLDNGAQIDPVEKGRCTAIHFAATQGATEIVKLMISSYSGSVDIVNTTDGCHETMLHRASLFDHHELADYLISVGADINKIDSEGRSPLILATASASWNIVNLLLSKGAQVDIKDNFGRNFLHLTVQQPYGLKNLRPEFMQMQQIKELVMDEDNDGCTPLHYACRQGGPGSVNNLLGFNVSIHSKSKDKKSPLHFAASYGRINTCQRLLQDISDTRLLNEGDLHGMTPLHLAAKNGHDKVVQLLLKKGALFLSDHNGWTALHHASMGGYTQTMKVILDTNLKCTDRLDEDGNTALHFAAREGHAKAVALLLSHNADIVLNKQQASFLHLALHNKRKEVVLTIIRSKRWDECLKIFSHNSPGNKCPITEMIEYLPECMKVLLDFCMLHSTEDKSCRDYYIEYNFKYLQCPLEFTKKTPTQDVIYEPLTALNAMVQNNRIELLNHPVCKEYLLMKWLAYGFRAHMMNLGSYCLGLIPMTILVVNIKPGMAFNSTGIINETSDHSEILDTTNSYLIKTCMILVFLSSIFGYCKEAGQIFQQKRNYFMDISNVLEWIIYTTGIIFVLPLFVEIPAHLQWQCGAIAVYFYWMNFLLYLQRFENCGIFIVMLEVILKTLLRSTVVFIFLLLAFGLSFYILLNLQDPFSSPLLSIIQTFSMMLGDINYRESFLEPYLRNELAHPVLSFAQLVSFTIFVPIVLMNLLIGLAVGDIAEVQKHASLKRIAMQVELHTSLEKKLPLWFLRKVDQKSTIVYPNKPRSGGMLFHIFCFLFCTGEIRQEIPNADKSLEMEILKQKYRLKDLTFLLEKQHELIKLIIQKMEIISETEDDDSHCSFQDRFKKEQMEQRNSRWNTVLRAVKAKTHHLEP
Chain of cloned hTRPM8 channel (Q7Z2W7 whole entry): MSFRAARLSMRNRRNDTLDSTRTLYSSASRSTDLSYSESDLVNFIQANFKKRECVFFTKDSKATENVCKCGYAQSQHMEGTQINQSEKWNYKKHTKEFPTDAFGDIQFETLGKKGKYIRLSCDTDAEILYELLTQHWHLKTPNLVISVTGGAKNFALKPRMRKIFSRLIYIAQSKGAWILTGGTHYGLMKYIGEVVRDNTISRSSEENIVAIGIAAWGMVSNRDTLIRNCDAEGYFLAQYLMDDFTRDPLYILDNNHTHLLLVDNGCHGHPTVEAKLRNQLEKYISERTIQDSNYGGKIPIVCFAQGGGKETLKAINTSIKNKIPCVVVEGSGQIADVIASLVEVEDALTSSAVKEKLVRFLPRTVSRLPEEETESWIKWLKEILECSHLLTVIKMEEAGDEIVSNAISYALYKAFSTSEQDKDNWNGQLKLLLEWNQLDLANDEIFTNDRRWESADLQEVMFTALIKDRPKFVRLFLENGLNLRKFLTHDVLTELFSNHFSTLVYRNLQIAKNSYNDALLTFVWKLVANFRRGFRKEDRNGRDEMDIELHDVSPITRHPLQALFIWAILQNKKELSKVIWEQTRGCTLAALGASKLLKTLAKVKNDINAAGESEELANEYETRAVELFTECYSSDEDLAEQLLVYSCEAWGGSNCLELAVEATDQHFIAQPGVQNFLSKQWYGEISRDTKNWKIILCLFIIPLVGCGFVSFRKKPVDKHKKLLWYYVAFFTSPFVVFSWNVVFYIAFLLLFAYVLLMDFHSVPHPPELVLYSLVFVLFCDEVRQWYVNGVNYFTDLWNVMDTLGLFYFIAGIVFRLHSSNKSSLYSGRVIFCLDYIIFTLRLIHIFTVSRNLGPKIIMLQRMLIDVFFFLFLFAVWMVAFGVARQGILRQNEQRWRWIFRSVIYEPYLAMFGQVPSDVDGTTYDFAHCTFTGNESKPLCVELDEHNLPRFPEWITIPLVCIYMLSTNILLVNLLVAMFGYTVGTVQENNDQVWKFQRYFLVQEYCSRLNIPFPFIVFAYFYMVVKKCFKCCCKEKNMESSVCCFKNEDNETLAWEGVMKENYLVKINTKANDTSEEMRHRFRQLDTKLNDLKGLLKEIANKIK

CCCCCCCCCP(=O)(C(C)C)C(C)C [DIPA-1-9, 1-Di(isopropyl)-phosphinoyl-nonane]
effect on blood pressure or heart rate (anesthetized rat [1]): did not affect blood pressure or heart rate | capsaicin induced coughing [2]: inhibited capsaicin induced coughing | Adverse Taste (Oral Cavity and Pharynx [3]; [12]): 0 | Discomfort (Oral Cavity and Pharynx [3]; [12]): 0 | Sensation (Oral Cavity and Pharynx [3]; [12]): cool | persistence of general sense of refreshment in the throat (Oral Cavity and Pharynx [3]; human, in vivo): ≥ 3 h | discomfort of satiety ([4]; 8 mg/mL in simple syrup, three over-weight individuals): instantly relieved | chronic cough outcome (cough variant asthma cases) ([4]; 8 mg/mL in syrup, 1 mL vials as needed): the coughing problem had disappeared; also recorded: the cough was gone | subjects reporting not effective [4, 13]: 3 | subjects reporting partially effective [4, 13]: 4 | subjects reporting very effective [4, 13]: 3 | residual antinociceptive effect duration ([4]; application to the throat): 3 h | time to decrease in cough frequency ([4]; person, 8 mg/mL in cherry-flavored syrup): ≤ 3 days | irritation of eyelids [5]: not to be irritating | cough frequency [6]: significantly inhibited cough frequency | water solubility relative to prior art / di-sec-butyl or mixed isopropyl-sec-butyl analogs [7]: 10 × | solubility ([7]; water): > 300 mg/mL | taste (oral cavity; 10 mg/mL spray): slight taste of bitterness | persistence of sensation of cooling (oral cavity; 10 mg/mL spray, contents spat out): ≥ 1 h | cooling of oral cavity (oral cavity; 10 mg/mL, 0.07 mL per activation, 3 activations): robust cooling of the oral cavity | Relative Potency to L-menthol (cloned hTRPM8 channel): 4.0 | activity on TRPA1 (selectivity) [8]: selective for TRPM8 and not TRPVI and TRPA1; also recorded: not on TRPV1 or TRPA1 receptors | activity on TRPV1 (selectivity) [9]: selective for TRPM8 and not TRPVI and TRPA1; also recorded: not on TRPV1 or TRPA1 receptors | shaking after topical application (anesthetized rat [10]): not active | pain or discomfort at increased concentration (Oral Cavity and Pharynx [11]): did not produce icy cold or pain | inflammatory response (rat skin; pure compound, 20 μL, abdominal skin of anesthetized rat): did not cause significant inflammatory response | Redness after 20 μL applied topically to skin (scale of 0 to +++) (rat skin; rat skin, 20 μL): 0 | irritation of shaved rat skin (rat skin; up to 20 mg/mL): not to be irritating | icy cold / pain in throat (oropharynx and esophagus; DIPA-1-9 up to 12 mg per unit): not seen; also recorded: did not produce stinging | taste (oropharynx and esophagus): did not have significant adverse taste | taste (oropharynx and esophagus; listed as DIPA1-9): does not have a strong metallic taste
